Measurements: patent US20260176267A1, “PREPARATION OF IMIDAZOPYRIDINE AND IMIDAZOPYRIDAZINE DERIVATIVES AS NOVEL DIACYLGLYCERIDE O-ACYLTRANSFERASE 2 INHIBITORS” (Merck Sharp & Dohme LLC, priority 2022, published 2026)

Target: T1, human DGAT2 (hDGAT2) (Homo sapiens, UniProt Q96PD7)
T1 construct: made in house; host or cells: Sf-9 insect cells (baculovirus), membrane fraction
T1 sequence (Q96PD7 1-388): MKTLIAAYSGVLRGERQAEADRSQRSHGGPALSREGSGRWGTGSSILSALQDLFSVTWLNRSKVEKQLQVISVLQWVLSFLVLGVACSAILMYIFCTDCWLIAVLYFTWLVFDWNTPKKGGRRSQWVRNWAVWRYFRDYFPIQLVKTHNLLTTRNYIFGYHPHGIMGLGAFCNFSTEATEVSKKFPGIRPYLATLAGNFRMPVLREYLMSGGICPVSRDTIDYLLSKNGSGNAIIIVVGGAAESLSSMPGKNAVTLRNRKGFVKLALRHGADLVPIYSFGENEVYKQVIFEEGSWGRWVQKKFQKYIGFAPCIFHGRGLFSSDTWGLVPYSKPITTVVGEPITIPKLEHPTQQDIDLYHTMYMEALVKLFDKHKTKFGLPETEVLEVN
Assay: DGAT2 Enzymatic Activity Assay
Type: biochemical
Conditions: membrane prep of Sf-9 cells expressing hDGAT2; 13C18-triolein product by LC/MS/MS; 25 μM diolein, 5 μM 13C oleoyl-CoA, rt
In short: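 Membranes from Sf-9 cells expressing untagged human DGAT2 (baculovirus, 48 h) used as enzyme at rt. The product ^13C18-triolein is quantified by LC/MS/MS against a ^13C21-triolein internal standard. Percent inhibition is taken from high and low controls, and IC50 is derived.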

## CC1(NC(=O)c2cn3cc(Oc4ncc(F)cc4OCC(F)(F)F)c(F)cc3n2)CCS(=O)(=O)CC1 [Example 21, 7-fluoro-6-[[5-fluoro-3-(2,2,2-trifluoroethoxy)-2-pyridyl]oxy]-N-(4-methyl-1,1-dioxo-thian-4-yl)imidazo[1,2-a]pyridine-2-carboxamide]
  IC50: 1.8 nM

## Cc1c(Oc2ncc(Cl)cc2OCC(F)(F)F)cc(F)c2nc(C(=O)NC3(C)CCS(=O)(=O)CC3)cn12 [Example 15, 6-[[5-chloro-3-(2,2,2-trifluoroethoxy)-2-pyridyl]oxy]-8-fluoro-5-methyl-N-(4-methyl-1,1-dioxo-thian-4-yl)imidazo[1,2-a]pyridine-2-carboxamide]
  IC50: 11 nM

## CC1(NC(=O)c2cn3nc(Oc4ncc(F)cc4OCC4CC4)ccc3n2)CCS(=O)(=O)CC1 [Example 157, 6-[[3-(Cyclopropylmethoxy)-5-fluoro-2-pyridyl]oxy]-N-(4-methyl-1,1-dioxo-thian-4-yl)imidazo[1,2-b]pyridazine-2-carboxamide]
  IC50: 18 nM

## Cc1c(C(=O)NC2(C)CS(=O)(=O)C2)nc2ccc(Oc3ncc(N(C)C)cc3OCC(F)(F)F)cn12 [Example 152, 6-[5-(dimethylamino)-3-(2,2,2-trifluoroethoxy)pyridine-2-yl]oxy-3-methyl-N-(3-methyl-1,1-dioxo-thietan-3-yl)imidazo[1,2-a]pyridin-1-ium-2-carboxamide]
  IC50: 63 nM

## Cc1c(C(=O)NC2(C)CS(=O)(=O)C2)nc2ccc(Oc3ncc(F)cc3OCC(F)F)cn12 [Example 74, 6-[[3-(2,2-difluoroethoxy)-5-fluoro-2-pyridyl]oxy]-3-methyl-N-(3-methyl-1,1-dioxo-thietan-3-yl)imidazo[1,2-a]pyridine-2-carboxamide]
  IC50: 6.7 nM

## CC(C)c1c(Oc2ncc(Cl)cc2OCC(F)(F)F)ccc2nc(C(=O)NC3(C)CS(=O)(=O)C3)cn12 [Example 55, 6-[[5-chloro-3-(2,2,2-trifluoroethoxy)-2-pyridyl]oxy]-5-isopropyl-N-(3-methyl-1,1-dioxo-thietan-3-yl)imidazo[1,2-a]pyridine-2-carboxamide]
  IC50: 89 nM

## CC1(NC(=O)c2nc3ccc(Oc4ncccc4OCC(F)(F)F)cn3c2O)CCS(=O)(=O)CC1 [Example 131, 3-hydroxy-N-(4-methyl-1,1-dioxo-thian-4-yl)-6-[[3-(2,2,2-trifluoroethoxy)-2-pyridyl]oxy]imidazo[1,2-a]pyridine-2-carboxamide]
  IC50: 34 nM

## Cc1c(Oc2ncccc2OCC(F)(F)F)ccc2nc(C(=O)NC3(C)CCS(=O)(=O)CC3)cn12 [Example 36, 5-methyl-N-(4-methyl-1,1-dioxo-thian-4-yl)-6-[[3-(2,2,2-trifluoroethoxy)-2-pyridyl]oxy]imidazo[1,2-a]pyridine-2-carboxamide]
  IC50: 30 nM

## CCOc1cccnc1Oc1ccc2nc(C(=O)N[C@@H]3CCCC[C@@H]3O)cn2c1 [Example 37]
  IC50: 124 nM

## CCOc1cccnc1Oc1ccc2nc(C(=O)NC3(C)CC(F)(F)C3)cn2c1 [Example 23, N-(3,3-difluoro-1-methyl-cyclobutyl)-6-[(3-ethoxy-2-pyridyl)oxy]imidazo[1,2-a]pyridine-2-carboxamide]
  IC50: 31 nM

## Cc1cc2nc(C(=O)NC3(C)CCS(=O)(=O)CC3)cn2nc1Oc1ncc(Cl)cc1OCC(F)F [Example 168, 6-((5-Chloro-3-(2,2-difluoroethoxy)pyridin-2-yl)oxy)-7-methyl-N-(4-methyl-1,1-dioxidotetrahydro-2H-thiopyran-4-yl)imidazo[1,2-b]pyridazine-2-carboxamide]
  IC50: 1 nM

## Cc1cc2nc(C(=O)NC3(C)CCS(=O)(=O)CC3)cn2cc1Oc1ncc(F)cc1OCC(C)(F)F [Example 19, 6-[[3-(2,2-difluoropropoxy)-5-fluoro-2-pyridyl]oxy]-7-methyl-N-(4-methyl-1,1-dioxo-thian-4-yl)imidazo[1,2-a]pyridine-2-carboxamide]
  IC50: 7.7 nM

## Cc1c(C(=O)N[C@H]2CCC(=O)NC2)nc2ccc(Oc3ncccc3OCC(F)(F)F)cn12 [Example 113, 3-methyl-N-[(3S)-6-oxo-3-piperidyl]-6-[[3-(2,2,2-trifluoroethoxy)-2-pyridyl]oxy]imidazo[1,2-a]pyridine-2-carboxamide]
  IC50: > 9990 nM

## CCOc1ccccc1Oc1ccc2nc(C(=O)N[C@H]3CCOC3)cn2c1 [Example 184, (S)-6-(2-ethoxyphenoxy)-N-(tetrahydrofuran-3-yl)imidazo[1,2-a]pyridine-2-carboxamide]
  IC50: 6340 nM

## Cc1c(C(=O)NC2(C)CCC(F)(F)CC2)nc2ccc(Oc3ncccc3OCC(F)F)cn12 [Example 86, 6-[[3-(2,2-difluoroethoxy)-2-pyridyl]oxy]-N-(4,4-difluoro-1-methyl-cyclohexyl)-3-methyl-imidazo[1,2-a]pyridine-2-carboxamide]
  IC50: 6.8 nM

## Cc1c(C(=O)NC2(C)CS(=O)(=O)C2)nc2ccc(Oc3ncc(Cl)cc3OCC(F)(F)F)cn12 [Example 84, 6-[[5-chloro-3-(2,2,2-trifluoroethoxy)-2-pyridyl]oxy]-3-methyl-N-(3-methyl-1,1-dioxo-thietan-3-yl)imidazo[1,2-a]pyridine-2-carboxamide]
  IC50: 6.2 nM

## CC1(NC(=O)c2cn3nc(Oc4ncc(Cl)cc4OCC(F)(F)F)ccc3n2)CS(=O)(=O)C1 [Example 162, 6-[[5-chloro-3-(2,2,2-trifluoroethoxy)-2-pyridyl]oxy]-N-(3-methyl-1,1-dioxo-thietan-3-yl)imidazo[1,2-b]pyridazine-2-carboxamide]
  IC50: 474 nM

## Cc1c(C(=O)NC2(C)CCS(=O)(=O)CC2)nc2ccc(Oc3ncc(C(C)C)cc3OCC(F)(F)F)cn12 [Example 75, 6-[[5-isopropyl-3-(2,2,2-trifluoroethoxy)-2-pyridyl]oxy]-3-methyl-N-(4-methyl-1,1-dioxo-thian-4-yl)imidazo[1,2-a]pyridine-2-carboxamide]
  IC50: 6.6 nM

## CCOc1cccnc1Oc1ccc2nc(C(=O)NC3(C)CCC(F)(F)CC3)cn2c1 [Example 3, N-(4,4-difluoro-1-methyl-cyclohexyl)-6-[(3-ethoxy-2-pyridyl)oxy]imidazo[1,2-a]pyridine-2-carboxamide]
  IC50: 5.8 nM

## CC1(CNC(=O)c2cn3cc(Oc4ncc(Cl)cc4OCC(F)(F)F)ccc3n2)CS(=O)(=O)C1 [Example 42, 6-[[5-chloro-3-(2,2,2-trifluoroethoxy)-2-pyridyl]oxy]-N-[(3-methyl-1,1-dioxo-thietan-3-yl)methyl]imidazo[1,2-a]pyridine-2-carboxamide]
  IC50: 50 nM

## COc1c(C(=O)NC2(C)CCS(=O)(=O)CC2)nc2ccc(Oc3ncccc3OCC(F)(F)F)cn12 [Example 134, 3-methoxy-N-(4-methyl-1,1-dioxo-thian-4-yl)-6-[[3-(2,2,2-trifluoroethoxy)-2-pyridyl]oxy]imidazo[1,2-a]pyridine-2-carboxamide]
  IC50: 6.2 nM

## CCOc1cccnc1COc1ccc2nc(C(=O)NC3(C)CCS(=O)(=O)CC3)c(C)n2c1 [Example 125, 6-[(3-ethoxy-2-pyridyl)methoxy]-3-methyl-N-(4-methyl-1,1-dioxo-thian-4-yl)imidazo[1,2-a]pyridine-2-carboxamide]
  IC50: 4.9 nM

## CC1(NC(=O)c2nc3cc(Cl)c(Oc4ncc(Cl)cc4OCC(F)F)nn3c2Cl)CS(=O)(=O)C1 [Example 175, 3,7-dichloro-6-[[5-chloro-3-(2,2-difluoroethoxy)-2-pyridyl]oxy]-N-(3-methyl-1,1-dioxo-thietan-3-yl)imidazo[1,2-b]pyridazine-2-carboxamide]
  IC50: 0.4 nM

## COc1c(C(=O)NC2(C)CS(=O)(=O)C2)nc2ccc(Oc3ncc(F)cc3OCC(F)(F)F)cn12 [Example 135, 6-[[5-fluoro-3-(2,2,2-trifluoroethoxy)-2-pyridyl]oxy]-3-methoxy-N-(3-methyl-1,1-dioxo-thietan-3-yl)imidazo[1,2-a]pyridin-1-ium-2-carboxamide;2,2,2-trifluoroacetate]
  IC50: 62 nM

## Cc1c(Oc2ncc(Cl)cc2OCC(F)(F)F)ccc2nc(C(=O)NC3(C)CCS(=O)(=O)CC3)c(Cl)n12 [Example 141, 3-chloro-6-[[5-chloro-3-(2,2,2-trifluoroethoxy)-2-pyridyl]oxy]-5-methyl-N-(4-methyl-1,1-dioxo-thian-4-yl)imidazo[1,2-a]pyridine-2-carboxamide]
  IC50: 2.6 nM

## Cc1cc2nc(C(=O)NC3(C)CCS(=O)(=O)CC3)cn2cc1Oc1nccnc1OCC(F)(F)F [Example 20, 7-methyl-N-(4-methyl-1,1-dioxidotetrahydro-2H-thiopyran-4-yl)-6-((3-(2,2,2-trifluoroethoxy)pyrazin-2-yl)oxy)imidazo[1,2-a]pyridine-2-carboxamide]
  IC50: 17.3 nM

## CCOc1cccnc1Oc1ccc2nc(C(=O)N[C@H]3CCCC[C@@H]3O)cn2c1 [Example 22, 6-[(3-ethoxy-2-pyridyl)oxy]-N-[(1S,2S)-2-hydroxycyclohexyl]imidazo [1,2-a]pyridine-2-carboxamide]
  IC50: 3.5 nM

## Cc1c(C(=O)NC2(C)CS(=O)(=O)C2)nc2cc(F)c(Oc3ncc(F)cc3OCC(F)(F)F)cn12 [Example 121, 7-fluoro-6-[[5-fluoro-3-(2,2,2-trifluoroethoxy)-2-pyridyl]oxy]-3-methyl-N-(3-methyl-1,1-dioxo-thietan-3-yl)imidazo[1,2-a]pyridine-2-carboxamide]
  IC50: 41 nM
